# Source: PubChem BioAssay (NCI)
# Where “and” joins values, the source holds several entries; their conditions need not be identical. Equal entries are not always repeated.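 1) Cells in 96-well plates. 2) Compound, 48 h, 5 concentrations. 3) Linear interpolation between surrounding doses. 4) Unreached endpoint = highest concentration. At the GI50, growth is halved. TGI denotes the concentration required for complete inhibition of growth.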
# Key:
# Assay in all cases: NCI-60 cell line screen, 48 h
# SN12C renal = test system: SN12C renal
# PC-3 prostate = test system: PC-3 prostate
# HL-60(TB) leukemia = test system: HL-60(TB) leukemia
# SK-MEL-28 melanoma = test system: SK-MEL-28 melanoma
# MDA-MB-435 = test system: MDA-MB-435
# COLO 205 colon = test system: COLO 205 colon
# OVCAR-5 ovarian = test system: OVCAR-5 ovarian
# CCRF-CEM leukemia = test system: CCRF-CEM leukemia
# SNB-75 CNS = test system: SNB-75 CNS
# SF-539 CNS = test system: SF-539 CNS
Structure (SMILES),GI50 (SN12C renal) [µM],TGI (SN12C renal) [µM],GI50 (PC-3 prostate) [µM],TGI (PC-3 prostate) [µM],GI50 (HL-60(TB) leukemia) [µM],TGI (HL-60(TB) leukemia) [µM],GI50 (SK-MEL-28 melanoma) [µM],TGI (SK-MEL-28 melanoma),GI50 (MDA-MB-435) [µM],TGI (MDA-MB-435) [µM],GI50 (COLO 205 colon) [µM],TGI (COLO 205 colon),GI50 (OVCAR-5 ovarian) [µM],TGI (OVCAR-5 ovarian),GI50 (CCRF-CEM leukemia) [µM],TGI (CCRF-CEM leukemia),GI50 (SNB-75 CNS) [µM],TGI (SNB-75 CNS),GI50 (SF-539 CNS) [µM],TGI (SF-539 CNS)
COC(=O)C(C)NP(=O)(OCc1ccc(Cn2cnc3c(=O)[nH]c(N)nc32)cc1)Oc1ccccc1 (stereo unspecified),> 100,> 100,> 100,> 100,> 100,> 100,> 100,> 100 µM,> 100,> 100,> 100,> 100 µM,> 100,> 100 µM,> 100,> 100 µM,> 100,> 100 µM,> 100,> 100 µM
NC1=C(Cl)C(=O)c2ccc(S(N)(=O)=O)cc2C1=O,0.172,0.34,0.314,1.5,0.366,1.18,0.247,0.565 µM,0.0288,0.0743,1.57,2.98 µM,0.251,0.658 µM,0.374,2.77 µM,0.144,0.293 µM,0.2,0.379 µM
O=[N+]([O-])c1cc(CCl)ccc1CCl,,2.97,,3.08,,,,5.01 µM,,5.05,,3.19 µM,,6.18 µM,,3.14 µM,,6.88 µM,,7.14 µM
COc1ccc(-c2cnc3ccnn3c2-c2cc(OC)c(OC)c(OC)c2)cc1,5.4,> 100,2,> 100,2.3,7.16,10,> 100 µM,0.282,0.976,2.1,5.51 µM,4.42,> 100 µM,3.52,> 100 µM,2.2,62.7 µM,1.99,6.11 µM
S=c1nc2[nH]ncc2c(N/N=C/c2ccccc2)[nH]1,> 100,> 100,> 100,> 100,> 100,> 100,> 100,> 100 µM,> 100,> 100,> 100,> 100 µM,> 100,> 100 µM,78.6,> 100 µM,> 100,> 100 µM,> 100,> 100 µM
CC(=O)O[C@H]1C(=O)O[C@@H]2C[C@H]3C(C)=CC(=O)[C@@H](O)[C@]3(C)[C@H]3[C@@]4(O)OC[C@]32[C@@H]1[C@@H](C)[C@H]4O,0.0304,,,0.137,,0.4,< 0.0104,0.0577 µM and 0.142 µM,,0.233,0.136,0.365 µM and 0.686 µM,0.0588,1.11 µM and 3.51 µM,0.015,0.073 µM and 0.572 µM,< 0.017,0.104 µM and 0.154 µM,< 0.01,0.0151 µM and 0.0663 µM
C=C1C(=O)O[C@H]2[C@H]1CC/C(COC(=O)CCCCCCCCC(=O)OC/C1=C/CC[C@@]3(C)O[C@H]3[C@H]3OC(=O)C(=C)[C@@H]3CC1)=C\CC[C@@]1(C)O[C@@H]21,2.26,5.32,1.99,4.35,2.05,8.26,2.34,6.04 µM,2.02,4.59,1.89,4.15 µM,2.26,5.56 µM,2.02,11.8 µM,4.8,19.6 µM,1.9,3.95 µM
O=C(Nc1ccccc1)Nc1cccc(-n2cc(-c3ccncc3)c(-c3ccc(O)c(Cl)c3)n2)c1,4.13,> 100,3.19,19.6,2.32,5.36,3.27,18.6 µM,3.03,17,4.95,21 µM,5.39,31.5 µM,3.22,27.5 µM,1.68,10.7 µM,1.96,4.5 µM
c1cc(OCCN2CCCCCC2)ccc1CNc1ccc2nc(CCC3CCCCC3)[nH]c2c1,1.64,4.57,1.94,4.84,1.76,3.8,,,1.74,3.35,1.81,3.57 µM,2.48,7.33 µM,2.08,10.1 µM,1.5,4.52 µM,1.63,3.11 µM
Cn1ncc2c(/N=C/c3cccs3)[nH]c(=S)nc21,> 36,> 69.2,40.7,> 100,43.6,> 100,56.5,> 100 µM,29.9,> 72.2,22.8,65.7 µM,54,> 100 µM,55.7,> 100 µM,> 63.7,> 100 µM,32.2,> 100 µM
Cn1cccc1-c1cc(-c2cccs2)[nH]c(=O)c1C#N,> 100,> 100,> 100,> 100,,,> 100,> 100 µM,> 100,> 100,> 100,> 100 µM,> 100,> 100 µM,> 100,> 100 µM,37.7,> 100 µM,> 100,> 100 µM
COc1ccc(/C=C2\CN(Cc3cn(CCCNc4ccnc5cc(Cl)ccc45)nn3)C/C(=C\c3ccc(OC)c(OC)c3)C2=O)cc1OC,1.33,3.12,0.843,3.22,0.685,4.03,2.42,8.7 µM,1.12,5.32,1.03,2.39 µM,2.68,6.42 µM,0.571,8.65 µM,1.71,6.09 µM,1.99,4.76 µM
